Source: patent publication US10927111B2, “Inhibitors of RAF kinases” (Kinnate Biopharma Inc., priority 2019, dated 2021)
pIC50: −log10 of the molar value.

These compounds were tested against human RAF1 (Homo sapiens (Human), UniProt P04049) (assay: Protein kinase assay (radiometric 33P-ATP, MEK1 (K97R) substrate)). Details: human MEK1 (K97R) substrate 3 micromolar, ATP 10 micromolar, 10-dose IC50 mode; read-out: RAF-1 IC50.
Format: biochemical
Procedure: Protein kinase assay: Assay platform was used to measure kinase/inhibitor interactions as described previously (Anastassiadis et al., 2011). In brief, for each reaction, kinase and substrate were mixed in a buffer containing 20 mM HEPES (pH 7.5), 10 mM MgCl2, 1 mM EGTA, 0.02% Brij35, 0.02 mg/mL BSA, 0.1 mM Na3VO4, 2 mM DTT, and 1% DMSO. All compounds were solubilized in DMSO. Compounds were then added to each reaction mixture via acoustic dispense using an ECHO 550 nanoliter dispenser. For human RAF1 testing, human MEK1 (K97R) was used as a substrate at a concentration of 3 micromolar, with a final ATP concentration of 10 micromolar. For human BRAF testing, human MEK1 (K97R) was used as a substrate at 1 micromolar concentration, with a final ATP concentration of 25 micromolar. […] After a 20-min incubation, ATP (Sigma-Aldrich, St. Louis, Mo. 63178) and [g33P] ATP (specific activity 10 microCi/microliter) purchased at PerkinElmer (Boston, Mass., 02118 Cat #BLU 003H250UC) were added at a final total concentration of 10 mM. Reactions were carried out at room temperature for 2 hr and spotted onto P81 ionexchange cellulose chromatography paper (Reaction Biology). Filter paper was washed in 0.75% phosphoric acid to remove unincorporated ATP. The percent remaining kinase activity relative to a vehicle-containing (DMSO) kinase reaction was calculated for each kinase/inhibitor pair. IC50 values were calculated using Prism 5 (GraphPad).

human RAF1, sequence (P04049 whole entry): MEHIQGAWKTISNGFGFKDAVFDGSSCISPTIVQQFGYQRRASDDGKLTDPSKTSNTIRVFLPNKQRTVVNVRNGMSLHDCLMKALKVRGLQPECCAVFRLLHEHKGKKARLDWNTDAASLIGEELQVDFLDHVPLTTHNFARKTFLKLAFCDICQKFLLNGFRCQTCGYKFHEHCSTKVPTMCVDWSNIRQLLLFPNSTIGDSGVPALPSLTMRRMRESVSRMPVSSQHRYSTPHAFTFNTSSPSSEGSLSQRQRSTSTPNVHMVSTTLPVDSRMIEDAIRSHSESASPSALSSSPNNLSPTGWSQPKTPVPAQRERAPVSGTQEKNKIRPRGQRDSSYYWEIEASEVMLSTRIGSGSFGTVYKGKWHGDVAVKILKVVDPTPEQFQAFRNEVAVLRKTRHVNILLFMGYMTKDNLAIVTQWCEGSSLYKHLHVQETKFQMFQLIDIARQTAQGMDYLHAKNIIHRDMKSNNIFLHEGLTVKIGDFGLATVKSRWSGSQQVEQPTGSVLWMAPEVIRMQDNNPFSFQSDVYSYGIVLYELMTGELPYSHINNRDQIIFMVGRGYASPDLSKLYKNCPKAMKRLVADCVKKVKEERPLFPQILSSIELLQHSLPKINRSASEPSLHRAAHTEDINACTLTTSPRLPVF

pIC50, ≥ 8.00:
CNc1ncc2cc(-c3cc(NC(=O)N4CCO[C@H](C(F)(F)F)C4)c(F)cc3C)cnc2n1 [Example 61, (2S)-N-[2-fluoro-4-methyl-5-[2-(methylamino)pyrido[2,3-d]pyrimidin-6-yl]phenyl]-2-(trifluoromethyl)morpholine-4-carboxamide]
Cc1ccc(NC(=O)c2ccnc(C(F)(F)F)c2)cc1-c1cc2cnc(N)nc2nc1C [Example 48, N-(3-(2-amino-7-methylpyrido[2,3-d]pyrimidin-6-yl)-4-methylphenyl)-2-(trifluoromethyl)isonicotinamide]
CNc1ncc2cc(-c3cc(NC(=O)N4CC[C@H](CC(F)(F)F)C4)ccc3C)c(C)nc2n1 [Example 19, (R)-N-(4-methyl-3-(7-methyl-2-(methylamino)pyrido[2,3-d]pyrimidin-6-yl)phenyl)-3-(2,2,2-trifluoroethyl)pyrrolidine-1-carboxamide]
CNc1ncc2cc(-c3cc(NC(=O)c4cccc(C(F)(F)F)c4C)cnc3C)cnc2n1 [Example 47, 2-methyl-N-(6-methyl-5-(2-(methylamino)pyrido[2,3-d]pyrimidin-6-yl)pyridin-3-yl)-3-(trifluoromethyl)benzamide]
CNc1ncc2cc(-c3cc(NC(=O)c4cnnc(C(F)(F)F)c4)ccc3C)c(C)nc2n1 [Example 50, N-(4-methyl-3-(7-methyl-2-(methylamino)pyrido[2,3-d]pyrimidin-6-yl)phenyl)-6-(trifluoromethyl)pyridazine-4-carboxamide]
CNc1ncc2cc(-c3cc(NC(=O)N4CC[C@@H](CC(F)(F)F)C4)c(F)cc3C)cnc2n1 [Example 31, (S)-N-(2-fluoro-4-methyl-5-(2-(methylamino)pyrido[2,3-d]pyrimidin-6-yl)phenyl)-3-(2,2,2-trifluoroethyl)pyrrolidine-1-carboxamide]
Cc1ccc(NC(=O)c2ccnc(C(F)(F)F)c2)cc1-c1cc2cnc(NC(=O)C3CC3)nc2nc1C [Example 49, N-(3-(2-(cyclopropanecarboxamido)-7-methylpyrido[2,3-d]pyrimidin-6-yl)-4-methylphenyl)-2-(trifluoromethyl)isonicotinamide]
CNc1ncc2cc(-c3cc(NC(=O)N4CC[C@H](CC(F)(F)F)C4)c(F)cc3C)cnc2n1 [Example 30, (R)-N-(2-fluoro-4-methyl-5-(2-(methylamino)pyrido[2,3-d]pyrimidin-6-yl)phenyl)-3-(2,2,2-trifluoroethyl)pyrrolidine-1-carboxamide]
Cc1ccc(NC(=O)c2ccnc(C(F)(F)F)c2)cc1-c1cc2cnc(NC3CC3)nc2nc1C [Example 37, N-(3-(2-(cyclopropylamino)-7-methylpyrido[2,3-d]pyrimidin-6-yl)-4-methylphenyl)-2-(trifluoromethyl)isonicotinamide]
CNc1ncc2cc(-c3cc(NC(=O)N4CC[C@@H](OC(F)(F)F)C4)ccc3C)c(C#N)nc2n1 [Example 78, (3R)—N-[3-[7-cyano-2-(methylamino)pyrido[2,3-d]pyrimidin-6-yl]-4-methylphenyl]-3-(trifluoromethoxy)pyrrolidine-1-carboxamide]
CNc1ncc2cc(-c3cc(NC(=O)N4CCC(C(F)(F)F)C4)ccc3C)cnc2n1 (stereo in doubt) [Example 54, (3R)—N-[4-methyl-3-[2-(methylamino)pyrido[2,3-d]pyrimidin-6-yl]phenyl]3(trifluoromethyl)pyrrolidine-1-carboxamide]

Same assay, conditions: read-out: RAF-1 IC50

pIC50, ≥ 8.00:
CNc1ncc2cc(-c3cc(NC(=O)N4CC[C@@H](CC(F)(F)F)C4)c(F)cc3C)c(C)nc2n1 [Example 18, (S)-N-(2-fluoro-4-methyl-5-(7-methyl-2-(methylamino)pyrido[2,3-d]pyrimidin-6-yl)phenyl)-3-(2,2,2-trifluoroethyl)pyrrolidine-1-carboxamide]
